Values quoted from earlier work in patent publication US20120142645A1, “NEUROACTIVE STEROID COMPOSITIONS AND METHODS OF USE FOR LOWERING CHOLESTEROL” (priority 2009, published 2012).

Tested on: acute moderate to severe traumatic brain injury
Settings: intravenous for three days; Wright et al., 2007; cited from earlier work

## CC(=O)[C@H]1CC[C@H]2[C@@H]3CCC4=CC(=O)CC[C@]4(C)[C@H]3CC[C@]12C [progesterone]
  Reduction of 30-day mortality rates: over 50%
